Assay results published in US20150299233A1, “COMPOSITIONS AND METHODS COMPRISING RHENIUM FOR THE TREATMENT OF CANCERS” (Massachusetts Institute of Technology, priority 2014, published 2015).
Like-named read-outs stand apart in the source and are kept apart here.

Tests used:
[1] = tested on: MEFs PARP-1+/+ and MEFs PARP-1−/− cells; test: Cytotoxicity in MEFs PARP-1+/+ versus PARP-1-/- cells; format: cell-based, mouse; conditions: 72 h, FIG. 3A
Protocol: (§1) (PARP-1). PARP-1 is a nuclear enzyme that is involved in DNA repair and transcriptional regulation. DNA damage can trigger PARP-1 activity, resulting in ATP and NAD depletion and bioenergetics- mediated cell death. To determine whether PARP-1 activity is a factor in 1- and 2-mediated cell death, cytotoxicity assays were conducted with wild-type mouse embryonic fibroblast cells (MEFs PARP-1+/+) and the corresponding PARP-1-null cells (MEFs PARP-1−/−). […] Recently, p53 has also been reported to play a role in necroptosis. p53 induces cathepsin Q, a lysosomal protease that cooperates with ROS to execute necrosis. To investigate whether p53 might play a role in 1- and 2-mediated necroptosis, cytotoxicity studies were conducted with HCT116 p53^+/+ nd HCT116 p53^−/− cells.
(§2) Cell Cycle Analysis. To gain a more complete understanding of the cellular response evoked, DNA-flow cytometric studies were conducted to determine the effect of 1 and 2 on the cell cycle. A549 cells were treated with 1 or 2 (2 μM), and the cell cycle was determined over the course of 72 h. […] Upon further incubation (72 h), large populations of cell debris were detected (32%), indicative of cell death. […]
(§3) Cytotoxicity MTT Assay. […] The absorbance of the solution wells was read at 550 nm. Absorbance values were normalized to DMSO-containing control wells and plotted as the concentration of test compound versus % cell viability. […]

[2] = tested on: HeLa cervical adenocarcinoma cells; test: MTT cytotoxicity assay, HeLa cells; format: cell-based, human
[3] = tested on: MCF-7 (breast adenocarcinoma); test: MTT cytotoxicity assay, MCF-7 cells; format: cell-based, human; conditions: Table 2; cisplatin-resistant cell line; 72 h exposure
[4] = tested on: A549 cells; test: Cytotoxicity in the presence of cell death inhibitors, A549 cells; format: cell-based, human; conditions: for effect of co-treatment with IM-54 on toxicity: IM-54 10 μM, FIG. 1B; for effect of co-incubation with necrostatin-1 on toxicity, A549: necrostatin-1 60 μM, t test p<0.05, FIG. 1B
Protocol: In order to determine the cell-killing mechanism of 1 and 2, cytotoxicity studies in the presence of apoptosis and necrosis inhibitors were conducted. […] The possibility that 1 and 2 induce necroptosis was then investigated. […] To determine whether 1 and 2 induced necroptosis and/or uncontrolled necrosis, cytotoxicity studies were conducted in the presence of necrostatin-1 (60 μM) and IM-54 (10 μM), an inhibitor of H2O2-induced necrosis.
Cytotoxicity MTT Assay. […] Cells (2×10^3 cells/well) were seeded in a 96-well plate. […] 1 and 2 were prepared as 10 mM solutions in DMSO and diluted using media. The final concentration of DMSO in each well was 0.5%, and this amount was also present in the untreated control. After 72 h, the medium was removed, 200 μL of a 0.4 mg/mL solution of MTT in DMEM, RPMI, or McCoy's 5A was added, and the plate was incubated for an additional 1-2 h. The DMEM/MTT, RPMI/MTT, or McCoy's 5A/MTT mixture was aspirated, and 200 μL of DMSO was added to dissolve the resulting purple formazan crystals. The absorbance of the solution wells was read at 550 nm. Absorbance values were normalized to DMSO-containing control wells and plotted as the concentration of test compound versus % cell viability. IC50 values were interpolated from the resulting dose-dependent curves. The reported IC50 values are the average from at least three independent experiments, each of which consisted of six replicates per concentration level.
For specific cell death inhibitor assays, inhibitors of necroptosis (necrostatin-1, 60 μM), H2O2-induced necrosis (IM-54, 10 μM), and apoptosis (v-VAD-FMK, 5 μM) were added to cells and incubated for 1 h prior to treatment with the test compounds.

[5] = tested on: MDA-MB-231 (breast adenocarcinoma); test: MTT cytotoxicity assay, MDA-MB-231 cells; format: cell-based, human; conditions: Table 2; cisplatin-resistant cell line; 72 h exposure; read-out: IC50 MDA-M8-231 breast adenocarcinoma
[6] = tested on: HCT116 p53+/+ and HCT116 p53−/− cells; test: Cytotoxicity in HCT116 p53+/+ versus p53-/- cells; format: cell-based; conditions: 72 h, FIG. 3B
Protocol: as §1, §2, §3

[7] = tested on: A549 cells; test: Intracellular ROS assay (DCFH-DA, flow cytometry); format: cell-based, human; conditions: for induced ROS production in the presence of necrostatin-1: 20 μM for 12 h with necrostatin-1 60 μM; for intracellular ROS versus untreated control cells: 1, 2, shikonin 20 μM for 12 h, H2O2 1 mM for 1 h
Protocol: Characterization of Necroptotic Features. Having established that necrosome formation is a determinant of 1 and 2 activity, additional studies were performed to understand the cascade of events leading from necrosome formation to cell death. Necrosomes generate abnormally high levels of mitochondrial ROS, leading to ATP depletion and eventual degradation of the mitochondrial membrane potential. With this fact in mind, intracellular ROS production was quantified by flow cytometry using 6-carboxy-2′,7′-dichlorodihydrofluorescein diacetate (DCFH-DA), a well-established ROS indicator.
In FIG. 2: (A) Representative histograms displaying the green fluorescence emitted by DCFH-DA-stained A549 cells (i) and A549 cells treated with 1(20 μM for 12 h) (iii) or 1 (20 μM for 12 h) with nectrostatin-1 (60 μM for 12 h) (ii). (B) Representative histograms displaying the green fluorescence emitted by DCFH-DA-stained A549 cells (i) and A549 cells treated with 2 (20 μM for 12 h) (iii) or 2 (20 μM for 12 h) with nectrostatin-1 (60 μM for 12 h) (ii). (C) Representative histograms displaying the green fluorescence emitted by DCFH-DA-stained A549 cells (i) and A549 cells treated withH2O2 (1mM for 1 h) (iii). (D) Representative histograms displaying the green fluorescence emitted by DCFH-DA-stained A549 cells (i) and A549 cells treated with shikonin (20 μM for 12 h) (iii).
Intracellular ROS Assay. Untreated and treated A549 cells (1.5×10^6 cells/well) grown in six-well plates were incubated with 6-carboxy-2′,7′-dichlorodihydrofluorescein diacetate (20 μM) for 30 min. The cells were then washed with PBS (1 mL x 3), harvested, and analyzed by using a FACSCalibur-HTS flow cytometer (BD Biosciences) (20 000 events per sample were acquired). The FL1 channel was used to assess intracellular ROS levels. Cell populations were analyzed using the FlowJo software (Tree Star).

[8] = tested on: DU 145 (prostate carcinoma); test: MTT cytotoxicity assay, DU 145 cells; format: cell-based, human; conditions: Table 2; cisplatin-resistant cell line; 72 h exposure; read-out: IC50 DU 14S prostate carcinoma
[9] = tested on: HT-29 (colorectal adenocarcinoma); test: MTT cytotoxicity assay, HT-29 cells; format: cell-based, human; conditions: for IC50: Table 2, cisplatin-resistant cell line, 72 h exposure; for IC50 lower in HT-29 cells than IC50 of cisplatin: ratio to cisplatin
Protocol: Cytotoxicity MTT Assay. […] Cells (2×10^3 cells/well) were seeded in a 96-well plate. […] The final concentration of DMSO in each well was 0.5%, and this amount was also present in the untreated control. After 72 h, the medium was removed, 200 μL of a 0.4 mg/mL solution of MTT in DMEM, RPMI, or McCoy's 5A was added, and the plate was incubated for an additional 1-2 h. The DMEM/MTT, RPMI/MTT, or McCoy's 5A/MTT mixture was aspirated, and 200 μL of DMSO was added to dissolve the resulting purple formazan crystals. The absorbance of the solution wells was read at 550 nm. Absorbance values were normalized to DMSO-containing control wells and plotted as the concentration of test compound versus % cell viability. IC50 values were interpolated from the resulting dose-dependent curves. The reported IC50 values are the average from at least three independent experiments, each of which consisted of six replicates per concentration level.

[10] = Variable-temperature 1H NMR stability in DMSO; format: physicochemical; conditions: intact up to 75° C.
Protocol: Two rhenium(v) oxo complexes (1 and 2; see Scheme 1) were prepared by reacting ReOCI3)2 with […] of the corresponding bidentate ligand in methanol. The complexes were isolated in reasonable yields as pale green solids and fully characterized by NMR and IR spectroscopy, ESI-MS spectrometry, and elemental analysis.
Synthesis and Characterization. The rhenium(V) oxo complexes 1 and 2 (see Scheme 1) were prepared by the reaction of [ReOCl3(PPh3)2] with 1.5 equiv of the corresponding bidentate ligand in methanol (Scheme 1). The complexes were isolated in reasonable yields as pale green solids and fully characterized by NMR and IR spectroscopy and ESI mass spectrometry. The purity of the complexes was confirmed by elemental analysis.

[11] = tested on: confluent A549 cells; test: MTT cytotoxicity assay, confluent A549 cells; format: cell-based, human; conditions: for IC50: Table 2, confluent cells, 72 h exposure, read-out: IC50 A549 (confluent) lung carcinoma; for IC50 higher in confluent A549 cells than in A549 cells in log phase growth: confluent versus log phase
[12] = Table 1, 72 h exposure, ± standard deviation, read-out: IC50 HeLa cervical adenocarcinoma
[13] = Table A, average of three independent determinations, read-out: IC50 HeLa (cervical)

Row | SMILES | IC50 in MEFs PARP-1+/+ compared with MEFs PARP-1−/− [1] | IC50 [2, 12] [nM] | IC50 [2, 13] [nM] | IC50 [3] [nM] | effect of co-treatment with IM-54 on toxicity [4] | effect of co-incubation with necrostatin-1 on toxicity, A549 [4] | IC50 [5] [nM] | potency in HCT116 p53+/+ compared with HCT116 p53−/− [6] | induced ROS production in the presence of necrostatin-1 [7] | intracellular ROS versus untreated control cells [7] | IC50 [8] [nM] | IC50 [9] [nM] | IC50 lower in HT-29 cells than IC50 of cisplatin [9] [fold] | stability in DMSO [10] | IC50 [11] [nM] | IC50 higher in confluent A549 cells than in A549 cells in log phase growth [11] [fold]
1 | C[O][Re](=[O])([Cl])[Cl].c1ccc(-c2ccnc3c2ccc2c(-c4ccccc4)ccnc23)cc1 [Compound 1, [ReO(OMe)(4,7-diphenyl-1,10-phenanthroline)-Cl2]] | similar | 445 ± 4 | 445 | 285 ± 35 | did not significantly affect the toxicity | markedly decreased the toxicity | 475 ± 161 | statistically similar | attenuated | markedly higher levels of ROS | 2840 ± 381 | 85 ± 11 | 300 | stable | 8610 ± 749 | 40
2 | C[O][Re-2]1(=[O])([Cl])([Cl])[n+]2cc(C)c(C)c3ccc4c(C)c(C)c[n+]1c4c32 [Compound 2, [ReO(OMe)(3,4,7,8-tetramethyl-1,10-phenanthroline)Cl2]] | similar | 695 ± 21 | 695 ± 21 | 805 ± 21 | did not significantly affect the toxicity | markedly decreased the toxicity | 1740 ± 275 | statistically similar | attenuated | markedly higher levels of ROS | 1370 ± 84 | 95 ± 20 | 300 | stable | 5240 ± 1990 | 40
